The values below come from PMC6580095, “C8-substituted pyrido[3,4-d]pyrimidin-4(3H)-ones: Studies towards the identification of potent, cell penetrant Jumonji C domain containing histone lysine demethylase 4 subfamily (KDM4) inhibitors, compound profiling in cell-based target engagement assays” (European Journal of Medicinal Chemistry, 2019).

Converted amounts (≈) assume the structure as drawn. Where two headings read alike, the source gives them in different places.

Series [1] concerns the target KDM5B (Homo sapiens, UniProt Q9UGL1). The series is described as follows: cell-based.
Target sequence in this assay (Q9UGL1 whole entry): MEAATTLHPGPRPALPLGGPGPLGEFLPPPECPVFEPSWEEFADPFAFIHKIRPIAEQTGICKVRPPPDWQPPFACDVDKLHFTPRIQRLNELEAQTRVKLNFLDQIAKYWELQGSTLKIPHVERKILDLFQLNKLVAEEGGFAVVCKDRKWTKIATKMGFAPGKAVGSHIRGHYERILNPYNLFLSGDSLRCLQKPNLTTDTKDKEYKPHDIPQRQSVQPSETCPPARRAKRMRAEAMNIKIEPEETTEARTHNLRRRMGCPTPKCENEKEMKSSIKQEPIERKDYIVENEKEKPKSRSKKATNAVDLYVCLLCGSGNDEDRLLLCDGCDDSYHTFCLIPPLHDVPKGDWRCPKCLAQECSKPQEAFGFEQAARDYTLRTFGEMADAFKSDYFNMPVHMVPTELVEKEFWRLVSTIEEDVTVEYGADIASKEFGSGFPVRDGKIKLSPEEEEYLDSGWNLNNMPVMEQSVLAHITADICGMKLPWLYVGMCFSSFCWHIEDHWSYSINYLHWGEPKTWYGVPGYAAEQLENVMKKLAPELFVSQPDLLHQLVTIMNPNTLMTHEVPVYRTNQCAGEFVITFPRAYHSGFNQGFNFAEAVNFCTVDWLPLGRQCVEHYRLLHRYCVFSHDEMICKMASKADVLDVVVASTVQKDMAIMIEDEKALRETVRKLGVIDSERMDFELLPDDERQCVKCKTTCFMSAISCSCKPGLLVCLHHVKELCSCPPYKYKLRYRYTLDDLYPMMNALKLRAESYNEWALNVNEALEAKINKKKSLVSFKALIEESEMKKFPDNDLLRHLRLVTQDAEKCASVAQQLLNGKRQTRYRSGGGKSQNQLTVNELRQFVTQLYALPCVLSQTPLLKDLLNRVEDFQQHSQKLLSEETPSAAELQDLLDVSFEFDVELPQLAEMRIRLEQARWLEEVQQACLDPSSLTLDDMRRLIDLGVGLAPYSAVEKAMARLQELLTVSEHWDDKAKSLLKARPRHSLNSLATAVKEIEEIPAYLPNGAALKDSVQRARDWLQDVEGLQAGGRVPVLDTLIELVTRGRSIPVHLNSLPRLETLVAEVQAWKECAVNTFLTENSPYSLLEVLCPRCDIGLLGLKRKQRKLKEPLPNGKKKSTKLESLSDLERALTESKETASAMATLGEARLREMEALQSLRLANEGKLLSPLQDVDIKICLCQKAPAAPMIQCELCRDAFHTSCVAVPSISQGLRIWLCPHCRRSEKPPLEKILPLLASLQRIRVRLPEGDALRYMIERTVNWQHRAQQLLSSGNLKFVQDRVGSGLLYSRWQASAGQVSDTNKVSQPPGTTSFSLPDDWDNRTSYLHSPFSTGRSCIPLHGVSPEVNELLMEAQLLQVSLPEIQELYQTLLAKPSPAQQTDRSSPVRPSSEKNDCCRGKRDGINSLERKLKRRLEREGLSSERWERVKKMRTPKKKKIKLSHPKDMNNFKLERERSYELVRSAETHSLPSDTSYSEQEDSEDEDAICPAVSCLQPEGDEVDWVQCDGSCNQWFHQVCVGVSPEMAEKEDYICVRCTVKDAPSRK
Series [2] addresses T1, KDM5B (Homo sapiens, UniProt Q9UGL1).
T1 sequence (Q9UGL1 26-772): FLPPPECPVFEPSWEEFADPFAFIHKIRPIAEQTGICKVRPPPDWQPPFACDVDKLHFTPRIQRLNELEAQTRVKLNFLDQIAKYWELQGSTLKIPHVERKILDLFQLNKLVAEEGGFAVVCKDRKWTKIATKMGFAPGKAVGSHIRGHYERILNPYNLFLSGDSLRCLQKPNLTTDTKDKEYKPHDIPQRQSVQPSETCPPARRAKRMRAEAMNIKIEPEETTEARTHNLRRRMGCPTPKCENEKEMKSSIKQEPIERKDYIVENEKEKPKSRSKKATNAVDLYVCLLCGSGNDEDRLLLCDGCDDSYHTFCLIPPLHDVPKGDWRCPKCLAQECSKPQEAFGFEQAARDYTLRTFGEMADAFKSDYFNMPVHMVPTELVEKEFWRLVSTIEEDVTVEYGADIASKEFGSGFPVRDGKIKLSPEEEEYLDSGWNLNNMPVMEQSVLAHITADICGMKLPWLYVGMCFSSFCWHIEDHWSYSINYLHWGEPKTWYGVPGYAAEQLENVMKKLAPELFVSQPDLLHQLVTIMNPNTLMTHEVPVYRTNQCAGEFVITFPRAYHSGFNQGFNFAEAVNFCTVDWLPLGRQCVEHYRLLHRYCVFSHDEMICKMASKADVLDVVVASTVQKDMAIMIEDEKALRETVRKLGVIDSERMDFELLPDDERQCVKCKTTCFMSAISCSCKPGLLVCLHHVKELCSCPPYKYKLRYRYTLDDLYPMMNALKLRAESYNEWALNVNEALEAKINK
The series is described as follows: cell-based. This is another data set of the same source.

Series [3] deals with KDM5. As to conditions: H3K4Me3 levels in PC9 cells; cited from earlier work.
Series [4] in a line: Human plasma protein binding.
Series [5] is described as follows: In vitro intrinsic microsomal clearance, human. As to conditions: microsomes.
The nature of series [6]: Kinetic aqueous solubility.
A short description of series [7]: In vitro intrinsic microsomal clearance, rat. As to conditions: microsomes.
Series [8] in a line: In vitro intrinsic microsomal clearance, mouse. As to conditions: microsomes.
In series [9] the test system is LNCaP cells. The series is described as follows: Cell uptake and stability in LNCaP cellular culture. It is filed as in vitro ADME, human. As to conditions: 10 μM, up to 120 h.
Description: Following 1, 6, 24, 48, 72 and 120 h incubation, media was collected from cells and immediately frozen at −80 °C. Cells were trypsinised, pelleted and then frozen at −80 °C until analysis.
Cell and tissue culture media extracts were analysed using a Dionex Ultimate 3000 UHPLC system coupled to a Thermo Scientific Q Exactive Plus orbitrap mass spectrometer (Thermo Fisher Scientific Inc., Waltham, USA). Separation of analytes was achieved using an Acquity UPLC HSS T3 column (1.8 μm, 100 × 2.1 mm) (Waters, Elstree, UK) at a temperature of 50 °C and a binary mobile phase gradient at a flow rate of 0.4 mL/min. […] Sample analysis was by electrospray atmospheric pressure ionization combined with full scan acquisition in positive ion mode. […] Full MS/dd-MS^2 (full MS scan followed by data dependent MS/MS) and Full MS/AIF (full MS scan followed by all ion fragmentation) workflows were used in combination. Identification/presence of metabolites was undertaken with the aid of the software Compound Discoverer (v2.0.0.303, Thermo Fisher Scientific Inc., Waltham, USA).

With `CC(C)c1c(-c2cnn(C(C)(C)C)c2)[nH]c2c(C#N)cnn2c1=O` [Compound 6], the EC50 in [1] was 600 nM; in [2], 300 nM; in series [3] it was 340 nM.
On to `O=c1[nH]cnc2c(-n3cc(CCN4CCC5(CCc6ccccc65)CC4)cn3)nccc12` [Compound 19a, 8-(4-(2-(2,3-Dihydrospiro[indene-1,4′-piperidin]-1′-yl)ethyl)-1H-pyrazol-1-yl)pyrido[3,4-d]pyrimidin-4(3H)-one], for which the fraction unbound in [4] was 0.11. The intrinsic clearance (microsomal CLint) worked out at 24.7 µL/min/mg in series [5], 19.8 µL/min/mg in series [7] and 7.5 µL/min/mg in series [8]. The solubility (kinetic) in series [6] worked out at 93.3 µM (≈ 39.8 µg/mL). Also, the cell uptake entry in [9] is on record as “uptake of the parent compounds in a time-dependent manner”. The “stability in cellular culture (metabolites in cells or media)” value in [9] is reported as “no metabolites detected”.
On to `O=c1[nH]cnc2c(-n3cc(CCN4CCC5(CCc6ccccc65)CC4)cn3)cccc12` [Compound 41], for which, in series [9], the cell uptake result is “uptake of the parent compounds in a time-dependent manner” and the “stability in cellular culture (metabolites in cells or media)” value is recorded as “no metabolites detected”.
